Counter-ions that a name gives are not always drawn. Like-named read-outs stand apart in the source and are kept apart here.
Tested on: PRKACA-PRKAR2A interaction (SmBiT-PRKACA / LgBiT-PRKAR2A), protein kinase A
Design: NanoLuc complementation counter-screen in cell extract, PRKACA with PRKAR2A, loss of luminescence, detects NanoLuc interference
Settings: counter-screen for NanoLuc interference, 0.5 h, 20 µM, inhibitor

CC(C)C[C@H](NC(=O)[C@H](CC(C)C)NC(=O)[C@H](CC(C)C)NC(=O)OCc1ccccc1)B(O)O [UM0141934:01, MG-262]
Inh (PKA): 2.364%

CN([C@@H](Cc1ccc(OS(=O)(=O)c2cccc3cnccc23)cc1)C(=O)N1CCN(c2ccccc2)CC1)S(=O)(=O)c1cccc2cnccc12 [UM0141935:01, KN-62]
Inh (PKA): 9.099%

C[C@@]1(F)[C@H](O)[C@@H](CO)O[C@H]1n1ccc(=O)[nH]c1=O [UM0141938:01, PSI-6206]
Inh (PKA): 1.416%

CC(C)[C@H](O)C(=O)N[C@@H](C)C(=O)N[C@@H]1C(=O)N(C)CCc2ccccc21 [UM0141939:01, Semagacestat (LY450139)]
Inh (PKA): -0.02723%

C[C@@H]1O[C@@H](CC(=O)O)CC2=C1C(=O)c1c(O)cccc1C2=O [UM0141940:01, Nanaomycin A]
Inh (PKA): 18.84%

COc1cc2ncnc(Nc3cccc(Br)c3)c2cc1OC [UM0141943:01, PD153035 hydrochloride]
Inh (PKA): 18.98%

CC(C)c1nc(CN(C)C(=O)N[C@H](C(=O)N[C@@H](Cc2ccccc2)C[C@H](O)[C@H](Cc2ccccc2)NC(=O)OCc2cncs2)C(C)C)cs1 [UM0141947:01, Ritonavir]
Inh (PKA): 6.592%

Cc1cccc(C)c1OCC(=O)N[C@@H](Cc1ccccc1)[C@@H](O)C[C@H](Cc1ccccc1)NC(=O)[C@H](C(C)C)N1CCCNC1=O [UM0141948:01, Lopinavir]
Inh (PKA): 17.52%

COC(=O)N[C@H](C(=O)N[C@@H](Cc1ccccc1)[C@@H](O)CN(Cc1ccc(-c2ccccn2)cc1)NC(=O)[C@@H](NC(=O)OC)C(C)(C)C)C(C)(C)C [UM0141949:01, Atazanavir]
Inh (PKA) (Inh (PKA)): 2.849%

CC(C)CN(C[C@@H](O)[C@H](Cc1ccccc1)NC(=O)O[C@H]1CO[C@H]2OCC[C@H]21)S(=O)(=O)c1ccc(N)cc1 [UM0141950:01, Darunavir]
Inh (PKA): 4.833%

COc1cc2c(cc1OC)CN(CCc1ccc(NC(=O)c3cc(OC)c(OC)cc3NC(=O)c3cnc4ccccc4c3)cc1)CC2 [UM0141951:01, Tariquidar]
Inh (PKA): 12.46%

N#CSc1cc(SC#N)c(N)nc1N [UM0141952:01, PR-619]
Inh (PKA): 19.82%

COc1ccc(CCC(=O)Nc2nc3ccc(Cl)cc3s2)cc1OC [UM0141953:01, KY 02111]
Inh (PKA): 9.326%

COc1ccc(-c2ccc3c(N4CCOC[C@@H]4C)nc(N4CCOC[C@@H]4C)nc3n2)cc1CO [UM0141954:01, AZD8055]
Inh (PKA): 6.662%

CC(C)(C)n1nc(-c2ccc(Cl)cc2)c2c(N)ncnc21 [UM0141956:01, PP 2 (AG 1879)]
Inh (PKA): 33.15%

O=C(NCCCNc1nc(Nc2cccc(NC(=O)N3CCCC3)c2)ncc1I)c1cccs1 [UM0141957:01, BX795]
Inh (PKA): 37.99%

O=C(Nc1ccc(CN2CCOCC2)cc1)c1ccc(-c2cccc(Cl)c2)o1 [UM0141958:01, CID 2011756]
Inh (PKA): 20.99%

CCOC(=O)[C@@H](N)CCC(=O)N[C@@H](CSCc1ccccc1)C(=O)N[C@@H](C(=O)OCC)c1ccccc1 [UM0141959:01, Ezatiostat]
Inh (PKA) (Inh (PKA)): 2.198%

N#Cc1c(Oc2ccc(F)c(NC(=O)Cc3cccc(C(F)(F)F)c3)c2)ccc2nc(NC(=O)C3CC3)sc12 [UM0141960:01, TAK-632]
Inh (PKA): 4.577%

CC(=O)[C@]1(N)Cc2c(O)c3c(c(O)c2[C@@H](O[C@H]2C[C@H](O)[C@H](O)CO2)C1)C(=O)c1ccccc1C3=O [UM0141961:01, Amrubicin]
Inh (PKA): 25.46%

c1ccc2c(Oc3nc(Nc4ccc(N5CCOCC5)cc4)c4ncn(C5CCCCC5)c4n3)cccc2c1 [UM0141962:01, Purmorphamine]
Inh (PKA): 11.44%

CCCC(=O)Nc1cccc(NC(=O)c2ccccc2Br)c1 [UM0141963:01, ML161]
Inh (PKA): 3.147%

Cc1ccc2c(=O)c3cccc(CC(=O)O)c3oc2c1C [UM0141964:01, DMXAA (Vadimezan)]
Inh (PKA): 2.691%

CNC(=O)c1cc(Oc2ccc(NC(=O)c3cccc(C(F)(F)F)c3)cc2)ccn1 [UM0141965:01, SKLB610]
Inh (PKA): 8.796%

CCO[C@@H]1OC(=O)C[C@@H]1NC(=O)[C@@H]1CCCN1C(=O)[C@@H](NC(=O)c1ccc(N)c(Cl)c1)C(C)(C)C [UM0141966:01, VX-765]
Inh (PKA): 0.4442%

CCCNC(=O)[C@H]1O[C@@H]1C(=O)N[C@H](C(=O)N1CCC[C@H]1C(=O)OC)[C@@H](C)CC [UM0141967:01, CA-074 Me]
Inh (PKA): -0.4464%

FC(F)c1nc2ccccc2n1-c1nc(N2CCOCC2)nc(N2CCOCC2)n1 [UM0141969:01, ZSTK474]
Inh (PKA): 3.548%

NC(=O)c1ccc(-c2nc(-c3ccccn3)c(-c3ccc4c(c3)OCO4)[nH]2)cc1 [UM0141970:01, SB 431542]
Inh (PKA): 22.36%

COc1cc(N2CCC(N3CCN(C)CC3)CC2)ccc1Nc1ncc(Cl)c(Nc2ccccc2S(=O)(=O)C(C)C)n1 [UM0141971:01, TAE684 (NVP-TAE684)]
Inh (PKA): 23%

COC(=O)c1ccc2c(c1)NC(=O)/C2=C(\Nc1ccc(N(C)C(=O)CN2CCN(C)CC2)cc1)c1ccccc1 [UM0141972:01, Nintedanib (BIBF 1120)]
Inh (PKA): 17.71%

CCN(CC)CCNC(=O)c1c(C)[nH]c(/C=C2\C(=O)Nc3ccc(F)cc32)c1C [UM0141973:01, Sunitinib malate]
Inh (PKA): 55.62%

Cc1cc(C)nc(NS(=O)(=O)c2ccc(NC(=S)NC(=O)COc3ccc(Br)cc3Cl)cc2)n1 [UM0141974:01, ZCL278]
Inh (PKA): 9.562%

CN(C)CCCCC(=O)Nc1ccc(NC(=S)NC(=O)c2ccc(C(C)(C)C)cc2)cc1 [UM0141976:01, Tenovin-6]
Inh (PKA): 9.354%

Cc1ccc(NC(=O)Nc2cc(C(F)(F)F)ccc2F)cc1Nc1ccc2c(c1)NC(=O)/C2=C\c1ccc[nH]1 [UM0141977:01, GNF-5837]
Inh (PKA): 11.58%

CNC(=O)c1ccc(C)c(-n2c(C)cc(OCc3ccc(F)cc3F)c(Br)c2=O)c1 [UM0141978:01, PH-797804]
Inh (PKA): 5.099%

CN(c1ncccc1CNc1nc(Nc2ccc3c(c2)CC(=O)N3)ncc1C(F)(F)F)S(C)(=O)=O [UM0141980:01, PF-562271]
Inh (PKA) (Inh (PKA)): 55.16%

CCC(=O)N1CCN(c2ccc(-n3c(=O)ccc4cnc5ccc(-c6cnc7ccccc7c6)cc5c43)cc2C(F)(F)F)CC1 [UM0141981:01, Torin 1]
Inh (PKA): 8.063%

Cn1c(Nc2ccc(C(F)(F)F)cc2)nc2cc(Oc3ccnc(-c4ncc(C(F)(F)F)[nH]4)c3)ccc21 [UM0141982:01, RAF265]
Inh (PKA): 1.298%

CC(=O)c1c(C)c2cnc(Nc3ccc(N4CCNCC4)cn3)nc2n(C2CCCC2)c1=O [UM0141983:01, PD 0332991 (Palbociclib) HCl]
Inh (PKA) (Inh (PKA)): 11.32%

COc1cc2ncnc(Nc3ccc(F)c(Cl)c3)c2cc1NC(=O)/C=C/CN1CCCCC1 [UM0141985:01, Dacomitinib (PF299804, PF299)]
Inh (PKA): 10.53%

CN(c1ncccc1CNc1nc(Nc2ccc3c(c2)CC(=O)N3)ncc1C(F)(F)F)S(C)(=O)=O [UM0141986:01, PF-00562271]
Inh (PKA) (Inh (PKA)): 56.79%

CCOc1cc2ncc(C#N)c(Nc3ccc(OCc4ccccn4)c(Cl)c3)c2cc1NC(=O)/C=C/CN(C)C [UM0141987:01, Neratinib (HKI-272)]
Inh (PKA): 9.342%

CCC[C@H](NC(=O)/C(C#N)=C/c1cccc(Br)n1)c1ccccc1 [UM0141988:01, WP1130]
Inh (PKA): 8.904%

c1ccc2c(-c3cnn4cc(-c5ccc(N6CCNCC6)cc5)cnc34)ccnc2c1 [UM0141989:01, LDN-193189]
Inh (PKA) (Inh (PKA)): 1.838%

O=C1NC(=O)[C@@H](c2cn3c4c(cccc24)CCC3)[C@@H]1c1c[nH]c2ccccc12 [UM0141990:01, Tivantinib (ARQ 197)]
Inh (PKA): 34.28%

Cc1ncc(-c2ccnc(Nc3ccc(S(C)(=O)=O)cc3)n2)n1C(C)C [UM0141991:01, AZD-5438]
Inh (PKA): 13.33%

Cc1cc(Nc2ncc(Cl)c(Nc3ccccc3S(=O)(=O)C(C)C)n2)c(OC(C)C)cc1C1CCNCC1 [UM0141993:01, LDK378]
Inh (PKA): 11.01%

Nc1nc(Nc2ccc3c(c2)CCC(N2CCCC2)CC3)nn1-c1cc2c(nn1)-c1ccccc1CCC2 (stereo not drawn) [UM0141994:01, R428]
Inh (PKA): 28.03%

O=C(O)c1ccc2c(c1)nc(Nc1cccc(Cl)c1)c1ccncc12 [UM0141995:01, CX-4945 (Silmitasertib)]
Inh (PKA): 36.81%

COc1cc(Nc2ncc(F)c(Nc3ccc4c(n3)N(COP(=O)(O)O)C(=O)C(C)(C)O4)n2)cc(OC)c1OC [UM0141996:01, R788 disodium]
Inh (PKA) (Inh (PKA)): 11.53%

Cc1ccc([C@@H]2O[C@H](CO)[C@@H](O)[C@H](O)[C@H]2O)cc1Cc1ccc(-c2ccc(F)cc2)s1 [UM0141997:01, Canagliflozin]
Inh (PKA): 13.33%

C[C@]1(O)C[C@@H](c2nc(-c3ccc4ccc(-c5ccccc5)nc4c3)c3c(N)nccn32)C1 [UM0141998:01, Linsitinib]
Inh (PKA): 15.97%

CC(=O)c1c(C)c2cnc(Nc3ccc(N4CCNCC4)cn3)nc2n(C2CCCC2)c1=O [UM0141999:01, Palbociclib (PD0332991) Isethionate]
Inh (PKA) (Inh (PKA)): 9.751%

C[C@@H]1CN(CC(=O)Nc2ccc3c(c2)Cc2cccc(-c4cc(=O)cc(N5CCOCC5)o4)c2S3)C[C@H](C)O1 [UM0142000:01, KU-60019]
Inh (PKA): 8.664%

Cc1cnc(CNC(=O)c2c(=O)c3ccc(N4CCCN(C)CC4)nc3n3c2sc2ccccc23)cn1 [UM0142001:01, CX-5461]
Inh (PKA): 4.891%

Cc1ccc(S(=O)(=O)OCC(=O)Nc2ccc(C(=O)O)c(O)c2)cc1 [UM0142002:01, NSC 74859]
Inh (PKA): 1.866%

CN(c1ncccc1CNc1nc(Nc2ccc3c(c2)CC(=O)N3)ncc1C(F)(F)F)S(C)(=O)=O [UM0142004:01, PF-562271 HCl]
Inh (PKA) (Inh (PKA)): 48.82%

Cc1nc(NC(=O)N2CCC[C@H]2C(N)=O)sc1-c1ccnc(C(C)(C)C(F)(F)F)c1 [UM0142005:01, BYL-719]
Inh (PKA): 2.69%

Cc1ccc(Nc2nccc(N(C)c3ccc4c(C)n(C)nc4c3)n2)cc1S(N)(=O)=O [UM0142006:01, Pazopanib Hydrochloride]
Inh (PKA) (Inh (PKA)): 14.36%

Cc1cccc(-c2nn3c(c2-c2ccnc4ccc(C(N)=O)cc24)CCC3)n1 [UM0142007:01, LY2157299]
Inh (PKA): 1.976%
